Results reported in PubChem BioAssay (NCI).
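How tested: cells in 96-well plates exposed to compound for 48 hours at five concentrations. At the GI50, growth is halved. Definition used: TGI = concentration required for complete inhibition of growth.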

Assays:
Experiment in all cases: NCI tumour cell line growth inhibition, 48 h
DMS 114 small cell lung = tested on: DMS 114 small cell lung
DMS 273 small cell lung = tested on: DMS 273 small cell lung
KM20L2 colon = tested on: KM20L2 colon
XF 498 CNS = tested on: XF 498 CNS
DLD-1 colon = tested on: DLD-1 colon
RXF-631 renal = tested on: RXF-631 renal
SNB-78 CNS = tested on: SNB-78 CNS
HOP-18 NSCLC = tested on: HOP-18 NSCLC
P388 leukemia = tested on: P388 leukemia
P388/ADR leukemia = tested on: P388/ADR leukemia
SN12K1 renal = tested on: SN12K1 renal

SMILES | TGI (DMS 114 small cell lung) [µM] | TGI (DMS 273 small cell lung) [µM] | TGI (KM20L2 colon) [µM] | TGI (XF 498 CNS) [µM] | TGI (DLD-1 colon) [µM] | TGI (RXF-631 renal) [µM] | TGI (SNB-78 CNS) [µM] | TGI (HOP-18 NSCLC) [µM] | GI50 (P388 leukemia) [µM] | TGI (P388 leukemia) [µM] | TGI (P388/ADR leukemia) [µM] | TGI (SN12K1 renal) [µM]
Oc1ccccc1C=Nc1ccccc1N=Cc1ccccc1O | > 100 | > 100 | > 100 | > 100 | – | – | – | – | – | – | – | –
CC1(CO)C(=O)OC12CCCCC2 (stereo not drawn) | > 100 | > 100 | – | > 100 | > 100 | > 100 | > 100 | – | – | – | – | –
COc1c(Cl)c(Cl)c(OC)c2c1C(=O)C=CC2=O | 29.7 | 31.5 | > 100 | 31 | 29.5 | – | 26.7 | > 100 | – | – | – | –
NC(=S)N/N=C(\C(=O)Nc1ccc(Cl)c(Cl)c1)C1=NN(c2ccccc2)C(c2cccc([N+](=O)[O-])c2)CC1=O (stereo not drawn) | 71.2 | 45.2 | 46.8 | > 100 | 47.5 | > 100 | > 100 | > 100 | – | – | – | –
NC(CNc1ccc(O)cc1)C(=O)O (stereo not drawn) | > 100 | > 100 | > 100 | 29.1 | > 100 | > 100 | > 100 | > 100 | – | – | – | –
COc1ccc(CCC2NCCc3cc(OC)c(OC)cc32)cc1 (stereo not drawn) | – | – | > 100 | > 100 | > 100 | – | > 100 | > 100 | – | – | – | –
O=C1NC(=S)NC(=O)C1=Cc1ccc2ccccc2n1 | > 100 | > 100 | > 100 | – | > 100 | – | > 100 | > 100 | – | – | – | –
CCOC(=O)CN(Cc1ccccc1)Cc1c(C(=O)c2ccccc2)c2ccccc2n1C(=O)c1ccccc1 | > 100 | > 100 | > 100 | > 100 | > 100 | – | > 100 | – | – | – | – | –
Cc1ccc(Nc2ccc(Nc3ccc(C)cc3S(=O)(=O)O)c3c2C(=O)c2ccccc2C3=O)c(S(=O)(=O)O)c1 | > 100 | > 100 | > 100 | – | > 100 | > 100 | > 100 | > 100 | – | – | – | –
Cc1ccc(N(C(=O)CC(=O)N2N=C(c3ccccc3)C(N=Nc3ccc([N+](=O)[O-])cc3)C2=O)C(=O)c2ccc(Cl)cc2)cc1 (stereo not drawn) | > 51.1 | 20.3 | > 100 | 52.2 | > 55.9 | – | > 100 | > 85.6 | – | – | – | –
C/C(=C/c1c(C)[nH]c(=O)[nH]c1=O)C(=O)O | > 1380 | > 1380 | > 1370 | > 1370 | > 1380 | – | > 1380 | > 1380 | > 1370 | > 1370 | 1370 | > 1380
COc1ccc(N2C(=O)C3c4[nH]c5ccccc5c4C4CCC(C(C)(C)C)CC4C3C2=O)cc1OC (stereo not drawn) | – | 31.2 | > 100 | 34.7 | 39.9 | – | 56.4 | 40.8 | – | – | – | –
O=c1cc2cc(O)[nH]c(=O)c2c(O)[nH]1 | > 100 | > 100 | > 100 | > 100 | > 100 | > 100 | > 100 | – | – | – | – | –
COc1ccc(/C=C/C(C(=O)O)C(=O)O)cc1 | > 100 | > 100 | > 100 | > 100 | > 100 | – | > 100 | – | – | – | – | –
CC(C)(Oc1ccc(C(=O)c2ccc(Cl)cc2)cc1Cl)C(=O)N1CCN(c2ccccc2)CC1 | > 100 | > 100 | > 100 | > 100 | > 100 | – | > 100 | > 100 | – | – | – | –
Cc1oc2c(C)c3oc(=O)cc(C)c3cc2c1CN | > 100 | – | > 100 | 73.8 | > 100 | 90.4 | > 100 | > 100 | – | – | – | –
